From ChEMBL document CHEMBL1139631, “Inhibition of hydrogen peroxide-induced necrotic cell death with 3-amino-2-indolylmaleimide derivatives” (Bioorg Med Chem Lett, 2005)

Key:
Parameters in all cases: scale not given: the % may be the effect or the level left
[1] = biological target: Protein kinase C alpha type (Homo sapiens) (UniProt P17252); assay: Percentage inhibition of Protein kinase C alpha at 50 uM
[2] = biological target: T1, Protein kinase C iota type (Homo sapiens) (UniProt P41743); assay: Percentage inhibition of Protein kinase C iota at 50 uM
T1 sequence (whole entry): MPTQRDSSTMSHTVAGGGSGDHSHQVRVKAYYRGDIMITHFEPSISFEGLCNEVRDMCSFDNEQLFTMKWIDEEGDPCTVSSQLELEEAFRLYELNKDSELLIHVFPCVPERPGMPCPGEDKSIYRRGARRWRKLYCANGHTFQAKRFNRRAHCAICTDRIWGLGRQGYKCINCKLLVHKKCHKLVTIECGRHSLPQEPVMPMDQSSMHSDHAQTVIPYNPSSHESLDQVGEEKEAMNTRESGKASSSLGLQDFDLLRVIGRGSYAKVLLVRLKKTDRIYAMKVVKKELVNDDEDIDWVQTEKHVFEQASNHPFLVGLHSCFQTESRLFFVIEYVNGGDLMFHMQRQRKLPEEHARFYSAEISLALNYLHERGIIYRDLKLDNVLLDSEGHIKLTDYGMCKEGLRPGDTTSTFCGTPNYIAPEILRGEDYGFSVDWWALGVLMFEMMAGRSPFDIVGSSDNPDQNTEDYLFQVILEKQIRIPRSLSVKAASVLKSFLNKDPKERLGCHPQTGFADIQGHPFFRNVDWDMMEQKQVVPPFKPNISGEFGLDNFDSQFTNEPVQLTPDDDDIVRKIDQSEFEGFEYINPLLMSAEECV

[3] = biological target: T2, Protein kinase C zeta type (Homo sapiens) (UniProt Q05513); assay: Percentage inhibition against Protein kinase C zeta at 50 uM
T2 sequence (whole entry): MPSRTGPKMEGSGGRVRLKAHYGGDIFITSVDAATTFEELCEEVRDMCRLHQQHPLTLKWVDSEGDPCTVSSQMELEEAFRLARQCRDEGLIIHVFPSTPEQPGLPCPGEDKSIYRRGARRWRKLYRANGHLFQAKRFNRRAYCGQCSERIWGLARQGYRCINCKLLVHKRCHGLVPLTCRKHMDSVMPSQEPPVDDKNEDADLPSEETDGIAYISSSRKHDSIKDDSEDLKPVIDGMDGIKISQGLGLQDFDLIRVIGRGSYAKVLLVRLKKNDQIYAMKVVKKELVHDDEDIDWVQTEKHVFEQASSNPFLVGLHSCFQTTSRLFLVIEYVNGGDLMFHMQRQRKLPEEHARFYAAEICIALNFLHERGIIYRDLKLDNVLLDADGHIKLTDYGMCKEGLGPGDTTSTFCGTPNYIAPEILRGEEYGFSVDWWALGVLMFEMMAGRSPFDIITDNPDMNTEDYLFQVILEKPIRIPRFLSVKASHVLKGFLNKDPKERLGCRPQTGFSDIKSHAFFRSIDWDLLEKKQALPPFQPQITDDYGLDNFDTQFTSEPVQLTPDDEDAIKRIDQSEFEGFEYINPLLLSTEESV

[4] = biological target: Protein kinase C gamma type (Homo sapiens) (UniProt P05129); assay: Percentage inhibition of Protein kinase C gamma at 50 uM
[5] = biological target: Protein kinase C beta type (Homo sapiens) (UniProt P05771); assay: Percentage inhibition of Protein kinase C beta 1 at 50 uM
[6] = biological target: T3, Serine/threonine-protein kinase D1 (Homo sapiens) (UniProt Q15139); assay: Percentage inhibition of Protein kinase C mu at 50 uM
T3 sequence (whole entry): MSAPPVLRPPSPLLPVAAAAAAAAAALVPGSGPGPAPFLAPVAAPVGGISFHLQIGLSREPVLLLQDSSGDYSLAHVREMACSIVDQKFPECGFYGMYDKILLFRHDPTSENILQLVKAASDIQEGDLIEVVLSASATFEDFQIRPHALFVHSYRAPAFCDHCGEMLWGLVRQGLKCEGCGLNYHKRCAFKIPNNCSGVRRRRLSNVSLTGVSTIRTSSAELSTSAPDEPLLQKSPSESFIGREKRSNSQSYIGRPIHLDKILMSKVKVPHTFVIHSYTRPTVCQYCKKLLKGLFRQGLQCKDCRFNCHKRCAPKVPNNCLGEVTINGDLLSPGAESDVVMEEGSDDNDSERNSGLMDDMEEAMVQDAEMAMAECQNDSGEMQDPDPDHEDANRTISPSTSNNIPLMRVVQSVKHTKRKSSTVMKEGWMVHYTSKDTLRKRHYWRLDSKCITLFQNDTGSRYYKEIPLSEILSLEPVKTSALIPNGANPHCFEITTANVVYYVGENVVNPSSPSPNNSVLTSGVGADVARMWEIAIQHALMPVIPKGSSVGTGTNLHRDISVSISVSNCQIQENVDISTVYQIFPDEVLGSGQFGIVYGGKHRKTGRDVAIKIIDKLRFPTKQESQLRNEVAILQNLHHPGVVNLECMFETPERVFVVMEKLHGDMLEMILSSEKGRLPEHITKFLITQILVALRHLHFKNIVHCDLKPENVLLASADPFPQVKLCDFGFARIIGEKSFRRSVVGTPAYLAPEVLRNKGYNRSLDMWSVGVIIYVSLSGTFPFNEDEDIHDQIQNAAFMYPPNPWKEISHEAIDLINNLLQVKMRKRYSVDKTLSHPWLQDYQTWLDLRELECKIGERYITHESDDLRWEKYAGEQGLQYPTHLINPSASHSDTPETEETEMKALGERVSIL

[7] = biological target: Protein kinase C beta type (Homo sapiens) (UniProt P05771); assay: Percentage inhibition of Protein kinase C beta 2 at 50 uM
[8] = biological target: Protein kinase C delta type (Homo sapiens) (UniProt Q05655); assay: Percentage inhibition of Protein kinase C delta at 50 uM
[9] = biological target: Ribosomal protein S6 kinase beta-1 (Homo sapiens) (UniProt P23443); assay: Percentage inhibition of Ribosomal protein S6 kinase at 50 uM
[10] = biological target: Protein kinase C theta type (Homo sapiens) (UniProt Q04759); assay: Percentage inhibition of Protein kinase C theta at 50 uM
[11] = biological target: Protein kinase C eta type (Homo sapiens) (UniProt P24723); assay: Percentage inhibition of Protein kinase C eta at 50 uM
[12] = biological target: T4, Protein kinase C epsilon type (Homo sapiens) (UniProt Q02156); assay: Percentage inhibition of Protein kinase C epsilon at 50 uM
T4 sequence (whole entry): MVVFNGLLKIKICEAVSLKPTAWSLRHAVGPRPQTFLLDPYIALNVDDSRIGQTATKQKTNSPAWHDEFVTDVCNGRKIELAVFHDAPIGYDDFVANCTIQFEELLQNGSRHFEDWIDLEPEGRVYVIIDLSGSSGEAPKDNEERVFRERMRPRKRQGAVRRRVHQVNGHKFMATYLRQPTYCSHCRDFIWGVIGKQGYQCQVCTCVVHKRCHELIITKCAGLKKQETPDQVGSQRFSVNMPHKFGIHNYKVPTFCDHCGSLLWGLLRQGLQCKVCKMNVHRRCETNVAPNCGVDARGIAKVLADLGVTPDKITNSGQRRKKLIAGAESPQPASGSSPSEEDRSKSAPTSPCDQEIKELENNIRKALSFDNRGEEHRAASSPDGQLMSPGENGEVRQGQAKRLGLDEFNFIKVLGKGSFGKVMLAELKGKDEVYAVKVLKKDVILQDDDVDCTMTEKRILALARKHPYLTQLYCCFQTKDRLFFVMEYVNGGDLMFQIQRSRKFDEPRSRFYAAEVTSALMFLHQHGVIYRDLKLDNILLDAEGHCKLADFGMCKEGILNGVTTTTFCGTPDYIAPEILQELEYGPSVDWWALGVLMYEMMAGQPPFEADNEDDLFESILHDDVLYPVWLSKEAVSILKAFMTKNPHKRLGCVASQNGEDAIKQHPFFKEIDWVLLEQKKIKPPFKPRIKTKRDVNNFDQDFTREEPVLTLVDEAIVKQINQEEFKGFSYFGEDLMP

Sequence of Protein kinase C beta type (Homo sapiens) (P05771 2-671 limits assumed): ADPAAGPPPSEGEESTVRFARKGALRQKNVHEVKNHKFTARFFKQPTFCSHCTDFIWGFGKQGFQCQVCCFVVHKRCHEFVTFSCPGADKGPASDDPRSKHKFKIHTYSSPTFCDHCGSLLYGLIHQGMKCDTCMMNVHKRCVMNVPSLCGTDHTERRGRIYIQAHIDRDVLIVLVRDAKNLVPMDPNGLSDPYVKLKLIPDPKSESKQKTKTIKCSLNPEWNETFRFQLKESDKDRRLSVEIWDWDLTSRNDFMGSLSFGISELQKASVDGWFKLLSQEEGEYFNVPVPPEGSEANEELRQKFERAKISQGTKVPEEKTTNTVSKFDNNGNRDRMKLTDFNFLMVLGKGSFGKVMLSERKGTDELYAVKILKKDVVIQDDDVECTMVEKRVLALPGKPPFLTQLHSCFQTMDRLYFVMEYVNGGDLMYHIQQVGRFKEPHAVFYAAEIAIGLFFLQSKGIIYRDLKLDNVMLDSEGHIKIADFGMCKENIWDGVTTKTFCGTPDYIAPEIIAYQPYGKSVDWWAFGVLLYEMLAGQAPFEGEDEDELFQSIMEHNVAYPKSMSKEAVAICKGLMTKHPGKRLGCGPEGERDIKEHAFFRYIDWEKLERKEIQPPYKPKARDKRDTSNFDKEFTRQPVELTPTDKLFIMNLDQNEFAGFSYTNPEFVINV
Sequence of Protein kinase C eta type (Homo sapiens) (P24723 whole entry): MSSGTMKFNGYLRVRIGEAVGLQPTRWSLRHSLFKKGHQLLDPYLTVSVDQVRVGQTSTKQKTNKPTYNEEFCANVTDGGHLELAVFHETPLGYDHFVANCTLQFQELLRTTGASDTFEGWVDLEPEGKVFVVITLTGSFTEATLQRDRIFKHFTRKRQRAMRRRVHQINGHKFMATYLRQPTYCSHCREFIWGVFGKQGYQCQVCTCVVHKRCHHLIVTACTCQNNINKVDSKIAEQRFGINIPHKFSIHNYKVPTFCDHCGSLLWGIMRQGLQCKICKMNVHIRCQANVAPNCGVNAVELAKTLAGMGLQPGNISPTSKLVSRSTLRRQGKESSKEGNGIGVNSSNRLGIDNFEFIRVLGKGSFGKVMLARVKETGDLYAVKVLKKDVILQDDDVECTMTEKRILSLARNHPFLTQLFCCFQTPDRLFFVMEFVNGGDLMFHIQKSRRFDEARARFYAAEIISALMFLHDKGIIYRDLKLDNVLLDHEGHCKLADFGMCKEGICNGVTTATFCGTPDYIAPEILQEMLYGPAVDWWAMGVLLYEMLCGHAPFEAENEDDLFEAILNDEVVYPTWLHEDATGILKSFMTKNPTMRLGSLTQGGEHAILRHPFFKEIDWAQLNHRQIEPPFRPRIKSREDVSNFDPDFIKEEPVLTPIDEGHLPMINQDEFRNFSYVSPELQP
Sequence of Protein kinase C theta type (Homo sapiens) (Q04759 whole entry, looked up): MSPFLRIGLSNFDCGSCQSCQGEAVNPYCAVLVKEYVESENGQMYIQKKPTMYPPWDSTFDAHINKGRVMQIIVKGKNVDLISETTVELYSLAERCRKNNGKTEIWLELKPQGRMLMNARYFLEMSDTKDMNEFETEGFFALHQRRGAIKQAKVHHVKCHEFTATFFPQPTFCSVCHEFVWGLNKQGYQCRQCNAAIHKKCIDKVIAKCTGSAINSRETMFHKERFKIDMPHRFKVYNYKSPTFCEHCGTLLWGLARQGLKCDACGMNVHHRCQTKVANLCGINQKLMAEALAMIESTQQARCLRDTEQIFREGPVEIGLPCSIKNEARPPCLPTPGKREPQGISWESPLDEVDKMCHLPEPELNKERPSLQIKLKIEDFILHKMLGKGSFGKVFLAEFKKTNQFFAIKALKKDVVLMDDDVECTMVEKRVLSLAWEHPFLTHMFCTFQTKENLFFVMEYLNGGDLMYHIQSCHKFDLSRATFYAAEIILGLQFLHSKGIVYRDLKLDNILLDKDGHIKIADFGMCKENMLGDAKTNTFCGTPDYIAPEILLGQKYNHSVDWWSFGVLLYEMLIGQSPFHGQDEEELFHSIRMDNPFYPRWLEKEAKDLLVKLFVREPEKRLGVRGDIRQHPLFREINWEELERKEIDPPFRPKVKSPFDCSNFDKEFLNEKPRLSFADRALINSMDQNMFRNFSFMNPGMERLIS
Sequence of Protein kinase C delta type (Homo sapiens) (Q05655 whole entry, looked up): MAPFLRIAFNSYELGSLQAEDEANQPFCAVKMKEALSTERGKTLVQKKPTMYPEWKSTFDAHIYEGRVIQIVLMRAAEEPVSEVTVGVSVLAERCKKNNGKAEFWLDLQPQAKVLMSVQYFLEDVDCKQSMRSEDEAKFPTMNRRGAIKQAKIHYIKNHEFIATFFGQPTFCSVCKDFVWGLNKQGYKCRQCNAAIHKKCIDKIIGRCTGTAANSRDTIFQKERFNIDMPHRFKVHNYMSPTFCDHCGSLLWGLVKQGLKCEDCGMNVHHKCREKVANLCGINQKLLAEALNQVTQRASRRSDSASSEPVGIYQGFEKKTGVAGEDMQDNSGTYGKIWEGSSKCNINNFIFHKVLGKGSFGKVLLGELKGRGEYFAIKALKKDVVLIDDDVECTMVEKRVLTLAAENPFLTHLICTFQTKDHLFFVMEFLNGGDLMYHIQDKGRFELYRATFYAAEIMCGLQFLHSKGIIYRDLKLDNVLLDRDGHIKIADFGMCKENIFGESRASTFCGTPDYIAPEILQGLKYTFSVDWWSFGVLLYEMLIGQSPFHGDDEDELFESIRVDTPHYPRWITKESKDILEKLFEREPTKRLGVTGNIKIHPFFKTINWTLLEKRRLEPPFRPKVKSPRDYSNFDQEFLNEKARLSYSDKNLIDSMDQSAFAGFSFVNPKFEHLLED
Sequence of Ribosomal protein S6 kinase beta-1 (Homo sapiens) (P23443 whole entry, looked up): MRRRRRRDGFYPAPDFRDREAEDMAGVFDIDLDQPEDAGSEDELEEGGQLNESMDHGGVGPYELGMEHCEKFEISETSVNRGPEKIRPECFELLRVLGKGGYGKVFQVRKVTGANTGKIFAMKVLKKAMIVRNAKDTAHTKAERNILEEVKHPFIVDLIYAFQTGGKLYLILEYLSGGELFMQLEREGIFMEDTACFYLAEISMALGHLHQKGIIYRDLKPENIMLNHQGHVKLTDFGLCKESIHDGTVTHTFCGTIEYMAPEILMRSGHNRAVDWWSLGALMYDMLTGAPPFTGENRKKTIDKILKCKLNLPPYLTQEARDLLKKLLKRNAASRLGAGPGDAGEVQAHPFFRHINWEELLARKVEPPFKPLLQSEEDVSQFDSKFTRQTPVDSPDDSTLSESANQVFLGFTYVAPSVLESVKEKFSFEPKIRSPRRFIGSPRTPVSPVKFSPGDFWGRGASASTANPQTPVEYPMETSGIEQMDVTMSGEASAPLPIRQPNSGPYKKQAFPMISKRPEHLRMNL

SMILES	Activity [1] [%]	Activity [2] [%]	Activity [3] [%]	Activity [4] [%]	Activity [5] [%]	Activity [6] [%]	Activity [7] [%]	Activity [8] [%]	Activity [9] [%]	Activity [10] [%]	Activity [11] [%]	Activity [12] [%]
CCCCCNC1=C(c2cn(C)c3ccccc23)C(=O)N(C)C1=O	95	96	100	115	84	97	106	108	96	100	98	95
CN1C(=O)C(c2c[nH]c3ccccc23)=C(c2cn(CCCN)c3ccccc23)C1=O	66	87	85	85	78	88	84	82	28	78	55	10
